Where two headings read alike, the source gives them in different places.
Assays:
[1] = test system: P. falciparum 3D7 (sensitive strain); experiment: In vitro antimalarial activity, 3-day inhibition assay; type: cell-based, Plasmodium falciparum; details: Giemsa smears
Method: Blood stages of the laboratory clones P. falciparum 3D7 (sensitive strain), P. falciparum 803 (artemisinin-resistant strain), and P. falciparum Dd2 (chloroquine-resistant strain) were cultured in vitro according to the method of Trager and Jensens with minor modifications ([37]). Briefly, cultures were maintained in O-positive human erythrocytes (RBCs) as host cells at 2% hematocrit and maintained in complete medium (CM) [RPMI-1640 culture medium supplemented with NaHCO3 (2 mg/mL), hypoxanthine (50 µg/mL), HEPES (5.96 mg/mL), albumax II (1%), and gentamicin (40 µg/mL)]. The cultures were diluted to 1% parasitemia and 2% hematocrit in CM and incubated in a humidified atmosphere with 5% O2, 5% CO2, and 90% N2 at 37°C. Prior to experiments, the cultures were highly synchronized for ring stages using 5% sorbitol twice at a 40-h interval. Briefly, ring stage cultures were centrifuged and the pellet was washed once in incomplete medium (ICM, RPMI-1640 without addition). Then, the pellet was resuspended in 5% sorbitol and incubated at 37°C for 10 min. After incubation, the suspension was centrifuged and the pellet was washed once and resuspended in medium. The development of the parasite was observed using light microscopy, and parasitemia was determined by counting at least 10,000 RBCs on Giemsa’s solution-stained thin blood smears.
Highly synchronous ring stage parasites were used to investigate the in vitro antimalarial activity of the peptides. For preliminary screening of in vitro antimalarial activity, a 3-day inhibition assay was used to test the antimalarial activity of An-cecA, An-cecB, and An-cecC. […] For IC50 assay, a series of concentrations of peptides were added to the parasite culture. The concentrations of An-cecB were 5, 15, 20, 25, 30, 35, and 40 µM, while those of An-cecB-1 were 20, 30, 40, 50, 60, 70, 80, and 90 µM. After 72 hours of incubation, the antimalarial effects of peptides were estimated. Thin blood films stained with Giemsa’s solution were counted under a microscope. The parasitemia of cultures treated with peptides was compared with that of control. IC50 was calculated by GraphPad Prism.

[2] = test system: Bacillus subtilis (ATCC); experiment: Antimicrobial assay, broth dilution; type: cell-based; details: B. subtilis
Method: (§1) Gram-positive bacteria S. aureus, B. subtilis, and Gram-negative E. coli were used in antimicrobial assays. Bacteria were first grown in LB (Luria-Bertani) broth to an absorbance of 0.8 at 600 nm. The antibacterial behavior of the peptides was studied via the agar disc diffusion assay and broth microdilution method ([41], [42]). The agar plates were made by pouring 20 mL of LB broth containing 1.5% agar into 60-mm Petri dishes. Then, a 100-µL bacterial suspension (10^6 CFU/mL) was spread over the LB agar plate. Ten microliters of the 2-mg/mL peptide sample was carefully dropped onto sterile 2-mm diameter paper discs that had been previously attached to the plate. The plates were carefully placed in an incubator at 37°C for 24 hours. If an examined sample had antimicrobial activity, a clear zone was observed around the filter paper representing inhibition of bacterial growth. The MIC was determined by the broth dilution method, and the absorbance value was measured at an optical density at 600 nm (OD600) to determine the inhibition rate of peptides at different concentrations against each bacteria. Then, the MIC at which no visible growth occurred was recorded ([38]). The MIC50 was calculated by GraphPad Prism.

[3] = test system: Escherichia coli (ATCC 25922); experiment: Antimicrobial assay, broth dilution; type: cell-based; details: E. coli
Method: as §1

[4] = test system: Staphylococcus aureus (ATCC 6538); experiment: Antimicrobial assay, broth dilution; type: cell-based; details: S. aureus
Method: as §1

[5] = Acute oral toxicity test in mice; type: in vivo, BALB/c mice; details: for survival number: n = 6, 14 days; for Body weight Day0 / Body weight Day7 / Body weight Day14: n = 6, in g (unit assumed)
Method: Mice were housed under standard conditions at a temperature of 24 ± 2°C and a humidity of 50%–80%. Lighting was alternated between day and night every 12 hours. All mouse groups consisted of six animals per cage, and these were fed ad libitum with SPF-grade stock diet and water. All the experimental mice were adapted to the animal room for 1 to 2 weeks before the experiment.
For the acute toxicity test, the mice were divided into four groups. Each group contained six mice. Mice were fasted for 2 hours before feeding with a single oral dose of peptide. The mice in each group were fed with peptide at a single oral dose of 500, 200, and 100 mg/kg body weight. Normal saline (1 mL) was used as control. The general behavior of each mouse was observed continuously for the first 1 hour, then intermittently every 4 hours, and thereafter over a period of 24 hours ([43]).

[6] = test system: Plasmodium berghei (ANKA); type: in vivo; details: for Inhibition (%) of P. berghei growth: parasitemia on day 4, BALB/c mice
Method: The in vivo antimalarial activity of peptides was evaluated using a 4-day suppressive test in P. berghei-infected mouse model mice ([44]). The mice were divided into five groups of six mice. Donor mice were infected with 200 µL of P. berghei parasite inoculum by intraperitoneal injection. Parasitized blood was collected from the tail vein of donor mice and diluted with 0.9% sodium chloride solution. Mice were then infected with saline suspension of 1 × 10^7 parasitized erythrocytes (0.2 mL) by intraperitoneal injection (Day0). Four hours after infection, each of the three groups of mice was treated with peptide by intraperitoneal injection at daily doses of 10, 25, and 50 mg/kg for 4 consecutive days. Positive control mice were treated with chloroquine at daily doses of 10 mg/kg and negative control mice with normal saline. On day 4 (96 hours post infection), the parasitemia of each mouse was determined under a light microscope by examination of Giemsa’s solution-stained thin blood smears prepared from mouse tail blood ([28]). The mean parasitemia in each group of mice was used to calculate the % suppression for each dose using the following formula:
%suppression = (parasitemia of negative control − parasitemia of test) * 100/parasitemia of negative control.
The antimalarial activity of the peptides was determined from the ratio of the percentage of parasite reduction in treated and negative control groups ([44]). Results were expressed as median (range) values.

[7] = test system: HepG2 cells
Method: The mammalian cell lines HepG2 and HEK293T were used for cytotoxicity tests. The cells were cultured in Dulbecco’s modified Eagle medium supplemented with 10% fetal bovine serum and 1% penicillin/streptomycin in an incubator at 37°C with 5% CO2. Cells were seeded at a density of 1 × 10^5 cells/mL per well into a 96-well plate overnight and treated with different concentrations of peptides for 48 hours. To analyze the CC50 of peptides, a series of concentrations of peptides (0, 5, 10, 20, 30, 40, 50, 60, and 70 µM) were set to detect their cytotoxic concentrations. Then, 10% CCK-8 solution was added into each well and incubated for another 2 hours. The absorbance was monitored by a microplate reader at 450 nm. PBS was used as a negative control and the inhibition of each drug was normalized to that of the PBS control. CC50 was calculated by GraphPad Prism. Two independent assays with three technical replicates each time were conducted.

Sequence: APRWKFGKRLEKLGRNVFRAA KKALPVIAGYKAL-NH2 [An-cecB]
- inhibition rate ([1]; 50 µM peptide, 72 h, ring stage, 1% parasitemia, 2% hematocrit): 100%
- IC50 ([1]; 3D7, 72 h incubation, GraphPad Prism, two independent assays, three technical replicates): 12.4 µM
- MIC ([2]; OD600): 3.75 µM
- MIC50 ([2]; OD600, GraphPad Prism): 0.85 µM
- MIC ([3]; OD600): 3.75 µM
- MIC50 ([3]; OD600, GraphPad Prism): 0.63 µM
- MIC ([4]; OD600): 30 µM
- MIC50 ([4]; OD600, GraphPad Prism): 7.314 µM
- survival number ([5]; single oral dose 100 mg/kg): 6
- Body weight Day0 ([5]; single oral dose 100 mg/kg): 20.45±1.56
- Body weight Day7 ([5]; single oral dose 100 mg/kg): 20.9±1.62
- Body weight Day14 ([5]; single oral dose 100 mg/kg): 21.98±0.91
- survival number ([5]; single oral dose 200 mg/kg): 6
- Body weight Day14 ([5]; single oral dose 200 mg/kg, P < 0.01 vs control): 18.4±2.1
- Body weight Day0 ([5]; single oral dose 200 mg/kg): 20.45±1.56
- Body weight Day7 ([5]; single oral dose 200 mg/kg): 19.25±1.8
- survival number ([5]; single oral dose 500 mg/kg, one mouse died on Day8): 5
- Body weight Day14 ([5]; single oral dose 500 mg/kg, P < 0.01 vs control): 16.54±3.24
- Body weight Day0 ([5]; single oral dose 500 mg/kg): 19.55±2.01
- Inhibition (%) of P. berghei growth ([6]; 10 mg/kg daily i.p. for 4 consecutive days): 0.63%
- Inhibition (%) of P. berghei growth ([6]; 25 mg/kg daily i.p. for 4 consecutive days): 5.12%
- mortality of infected mice in the 4-day suppressive test ([6]; in vivo): all infected mice died before the end of the experiment
- CC50 [7]: 60.43 µM
